Measurements reported in patent US10745397B2, “1-Substituted 1,2,3,4-tetrahydro-1,7-naphthyridin-8-amine derivatives and their use as EP4 receptor antagonists” (TAKEDA PHARMACEUTICAL COMPANY LIMITED, priority 2015, dated 2020).

Assays:
[1] = molecular target: T1, hEP4 (C6 glioma cells overexpressing hEP4) (Homo sapiens, UniProt P35408); assay: hEP4 cell based assay (cAMP), inhibition of PGE2 induced cAMP, HTRF; conditions: 1 μM compound, PGE2 at EC80
T1 construct: host or cells: C6 glioma cells overexpressing hEP4
Method: The functional assay for hEP4 activation and inhibition was carried out via the quantitative determination of agonist, PGE2, induced cAMP response using HTRF in a competitive immunoassay (Cisbio dynamic 2 kit). NCEs at varying concentrations were evaluated for inhibition of PGE2 induced increase in cAMP. Briefly, C6 glioma cells overexpressing hEP4 (Takeda) were cultured in DMEM (low glucose, pyruvate), 10% FBS (Gibco) and PenStep. The cells were harvested on the day of the assay, washed with HBSS+10 mM HEPES (pH 7.4)+0.1% BSA buffer and pre-incubated with varying concentrations of NCE. Each reaction contained 7000 cells and NCEs in HBSS+10 mM HEPES+0.1% BSA assay buffer along with PDE inhibitors IBMX and Ro 20-1724 (final concentration of each inhibitor […]). Following 15 min pre-incubation, the cells were treated with EC80 concentration of agonist PGE2 for 30 min to induce cAMP. Final volume of the assay was 6 μL and DMSO concentration was maintained at 1%. The reaction was terminated with the addition of cAMP labeled with the dye d2 in lysis buffer according to manufacturers' protocol. This was followed by the addition of the anti-cAMP antibody labeled with Cryptate according to the manufacturers' protocol. The reaction was incubated at room temperature in dark for 45 min and the plate was evaluated for fluorescence at 665 nm (FRET) and 620 nm (cryptate emission) on a Flexstation III microplate reader (Molecular Devices, Sunnyvale, Calif.) Ex max: 313 nm; Em1: 620 nm; Em2: 665 nm. Data was analyzed using GraphPad Prism 5 (GraphPad Software Inc., San Diego, Calif.) where cells treated with agonist (EC80) was normalized to 0% inhibition of hEP4 and cells treated with buffer (no agonist) was normalized to 100% inhibition of hEP4. IC50 of NCEs was generated using non-linear regression—Log(inhibitor) vs. response equation in GraphPad Prism 5.

human EP4 receptor = molecular target: T2, human EP4 receptor (Homo sapiens, UniProt P35408); assay: hEP4 radioligand binding assay ([3H] PGE2 competitive binding, membrane fractions); conditions: 1 nM [3H] PGE2; for inhibition at 0.3 µM: 300 nM compound; for inhibition at 1 µM: 1 μM compound
T2 construct: expressed in transfected cells; host or cells: FreeStyle293 (HEK293F) cells, transient transfection with pcDNA3.1(+), total membrane fraction
From the text: The full-length coding sequences for human EP1 (NM_000955), human EP2 (NM_000956), human EP3 (NM_198717) and human EP4 (NM_000958) were cloned into pcDNA3.1(+) vector (Life Technologies, CA, USA). In order to prepare overexpressed EP 1-4 membrane in Freestyle293 cells (Life Technologies, CA, USA), the pcDNA3.1(+) vector encoding a cDNA of the relevant gene was transiently transfected into FreeStyle293 cells using 293Fectin (Life Technologies, CA, USA) according to the manufacturer instruction manual. After 2 days, cultured cells were centrifuged (1,000×g, 10 min, 4° C.) and pellets homogenized by a probe sonicator (Sonics vibracell, Sonics and Materials Inc., USA; 31% Amp, 5 sec pulse, Imin interval, 4 cycles) in ice-cold 50 mM Tris-HCl buffer (pH 7.5 at 25° C.) containing 0.5 mM EDTA, 250 mM Sucrose and 10 mM MgCl2. Cell homogenates were centrifuged (890×g, 10 min, 4° C.), and the supernatant was recovered. Total membrane fractions were isolated by ultracentrifugation (140,000×g, 60 min, 4° C.). Pellets were re-suspended in the same buffer, and stored at −80° C. until use. The protein concentration in homogenate was determined with the BCA Protein Assay Kit (Pierce Biotechnology, Inc., IL, USA) according to the manufacturer protocol.
The binding affinity of the compounds was evaluated using a competitive radioligand binding assay which measured the specific binding of [3H] PGE2 to the human EP4 receptor. Briefly, varying concentrations of NCEs were incubated with cell membrane fractions generated HEK293F cells transiently transfected with human EP4 receptor as described above. Each reaction consisted of 10 μg membrane protein and NCE in 50 mM Tris-HCl, pH-6.0 by NaOH, 10 mM MgCl2 and 0.5 mM EDTA assay buffer. Radioligand, [3H] PGE2 (American Radiochemicals Inc. Specific Activity 180 Ci/mmol), at a final of 1 nM was added to each reaction where the final assay volume was 200 μL and concentration of DMSO was adjusted to 1%. Appropriate controls included total binding in the assay (vehicle control) and control for non-specific binding. Non-specific binding was evaluated by incubating the hEP4 protein with 10 μM unlabeled PGE2 under the same assay conditions as NCEs. The reaction was incubated at room temperature for 2 hours and terminated by harvesting the reaction contents to a PEI coated GF/C filter plate (PerkinElmer). The plate was washed four times with cold 50 mM Tris-HCl, pH-7.5 wash buffer and dried at 50° C. for 2 hours or at 37° C. overnight. [3H] PGE2 bound to the protein was quantified by the addition of 25 μL of Microscint PS (PerkinElmer) and plate was read on MicroBeta2 liquid Scintillation and luminescence counter (PerkinElmer). Data was analyzed using GraphPad Prism 5 (GraphPad Software Inc., San Diego, Calif.) where non-specific binding was normalized to 0% specific binding of [3]PGE2 and vehicle control (DMSO) was normalized to 100% specific binding of [3]PGE2. Binding affinity of NCEs, Ki, was generated using One site—Fit Ki equation in GraphPad Prism 5.

T1 sequence (P35408 whole entry): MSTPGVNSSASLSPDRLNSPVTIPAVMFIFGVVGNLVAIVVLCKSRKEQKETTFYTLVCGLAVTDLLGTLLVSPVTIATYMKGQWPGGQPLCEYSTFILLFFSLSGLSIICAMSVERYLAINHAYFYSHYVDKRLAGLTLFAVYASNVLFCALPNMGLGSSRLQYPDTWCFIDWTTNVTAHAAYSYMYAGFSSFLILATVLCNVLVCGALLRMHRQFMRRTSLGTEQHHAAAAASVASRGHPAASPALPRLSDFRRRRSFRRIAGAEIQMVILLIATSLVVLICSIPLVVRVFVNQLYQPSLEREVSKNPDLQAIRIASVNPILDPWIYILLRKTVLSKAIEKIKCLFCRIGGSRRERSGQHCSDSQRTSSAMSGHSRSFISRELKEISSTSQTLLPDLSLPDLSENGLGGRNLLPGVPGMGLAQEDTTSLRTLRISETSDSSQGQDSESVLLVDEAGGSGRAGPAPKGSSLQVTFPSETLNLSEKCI
T2 sequence (P35408 whole entry): as above

Row | inhibition at 1 µM [1] [%] | inhibition at 0.3 µM (human EP4 receptor) [%] | inhibition at 1 µM (human EP4 receptor) [%] | SMILES
1 | 77 | 87 |  | C[C@H](Nc1nccc2c1N(Cc1ccc(-c3ccccc3)cc1)CCO2)c1ccc(C(=O)O)cc1 [Example B30, 4-[(1S)-1-[[4-[(4-phenylphenyl)methyl]-2,3-dihydropyrido[4,3-b][1,4]oxazin-5-yl]amino]ethyl]benzoic acid]
2 |  | 60 |  | C[C@H](Nc1ncc(C2CC2)c2c1N(Cc1cccc(C(F)(F)F)c1)CCO2)c1ccc(C(=O)O)cc1 [Example B47, 4-[(1S)-1-[[8-cyclopropyl-4-[[3-(trifluoromethyl)phenyl]methyl]-2,3-dihydropyrido[4,3-b][1,4]oxazin-5-yl]amino]ethyl]benzoic acid]
3 | 92 | 93 |  | C[C@H](Nc1nccc2c1N(Cc1ccc(F)c(F)c1)CCC2)c1ccc(C(=O)O)cc1 [Example B44, 4-[(1S)-1-[[1-[(3,4-difluorophenyl)methyl]-3,4-dihydro-2H-1,7-naphthyridin-8-yl]amino]ethyl]benzoic acid]
4 | 97 | 97 |  | C[C@H](Nc1nccc2c1N(Cc1ccc(C(F)(F)F)cc1)CCC2)c1ccc(C(=O)O)cc1 [Example B37, 4-[(1S)-1-[[1-[[4-(trifluoromethyl)phenyl]methyl]-3,4-dihydro-2H-1,7-naphthyridin-8-yl]amino]ethyl]benzoic acid]
5 |  | 42.4 |  | C[C@H](Nc1nccc2c1N(Cc1ccc(C(F)(F)F)cc1)CCN2C)c1ccc(C(=O)O)cc1 [Example B35, 4-[(1S)-1-[[1-methyl-4-[[4-(trifluoromethyl)phenyl]methyl]-2,3-dihydropyrido[3,4-b]pyrazin-5-yl]amino]ethyl]benzoic acid]
6 |  | 0.3 | 26 | C[C@H](Nc1nccc2c1N(Cc1ccc(F)c(F)c1)C(=O)CS2)c1ccc(C(=O)O)cc1 [Example B42, 4-[(1S)-1-[[4-[(3,4-difluorophenyl)methyl]-3-oxopyrido[4,3-b][1,4]thiazin-5-yl]amino]ethyl]benzoic acid]
7 |  | 42.5 |  | C[C@H](Nc1nccc2c1N(Cc1cccc(Cl)c1)CCN2C)c1ccc(C(=O)O)cc1 [Example B34, 4-[(1S)-1-[[4-[(3-chlorophenyl)methyl]-1-methyl-2,3-dihydropyrido[3,4-b]pyrazin-5-yl]amino]ethyl]benzoic acid]
8 |  | 49 |  | C[C@H](Nc1nccc2c1N(Cc1ccc(C(F)(F)F)cc1)C(=O)CS2)c1ccc(C(=O)O)cc1 [Example B36, 4-[(1S)-1-[[3-oxo-4-[[4-(trifluoromethyl)phenyl]methyl]pyrido[4,3-b][1,4]thiazin-5-yl]amino]ethyl]benzoic acid]
9 |  | 47 |  | Cc1noc(C)c1CN1CCOc2ccnc(N[C@@H](C)c3ccc(C(=O)O)cc3)c21 [Example B41, 4-[(1S)-1-[[4-[(3,5-dimethylisoxazol-4-yl)methyl]-2,3-dihydropyrido[4,3-b][1,4]oxazin-5-yl]amino]ethyl]benzoic acid]
10 |  | 10 |  | C[C@H](Nc1nccc2c1N(Cc1cccc(Cl)c1)C(=O)CS2)c1ccc(C(=O)O)cc1 [Example B43, 4-[(1S)-1-[[4-[(3-chlorophenyl)methyl]-3-oxopyrido[4,3-b][1,4]thiazin-5-yl]amino]ethyl]benzoic acid]
11 |  | 88 |  | C[C@H](Nc1ncnc2c1N(Cc1cccc(Cl)c1)CCO2)c1ccc(C(=O)O)cc1 [Example B38, 4-[(1S)-1-[[5-[(3-chlorophenyl)methyl]-6,7-dihydropyrimido[4,5-b][1,4]oxazin-4-yl]amino]ethyl]benzoic acid]

More lines, now with the values behind:

Row | SMILES | inhibition at 1 µM [1] [%] | inhibition at 0.3 µM (human EP4 receptor) [%] | inhibition at 1 µM (human EP4 receptor) [%]
12 | C[C@H](Nc1nccc2c1N(Cc1cccc(F)c1)CCO2)c1ccc(C(=O)O)cc1 [Example B8, 4-[(1S)-1-[[4-[(3-fluorophenyl)methyl]-2,3-dihydropyrido[4,3-b][1,4]oxazin-5-yl]amino]ethyl]benzoic acid] | 100 | 97 | 
13 | Cc1cccnc1CNc1nccc2c1N(Cc1ccc(F)c(F)c1)CCO2 [Example A50, 4-[(3,4-difluorophenyl)methyl]-N-[(3-methyl-2-pyridyl)methyl]-2,3-dihydropyrido[4,3-b][1,4]oxazin-5-amine] |  | 26 | 
14 | Fc1ccc(CN2CCOc3ccnc(NCC4CCCCC4)c32)cc1F [Example A51, N-(cyclohexylmethyl)-4-[(3,4-difluorophenyl)methyl]-2,3-dihydropyrido[4,3-b][1,4]oxazin-5-amine] |  |  | 29
15 | COc1cccc(CN2CCOc3ccnc(N[C@@H](C)c4ccc(C(=O)O)cc4)c32)c1 [Example B12, 4-[(1S)-1-[[4-[(3-methoxyphenyl)methyl]-2,3-dihydropyrido[4,3-b][1,4]oxazin-5-yl]amino]ethyl]benzoic acid] | 100 | 98 | 
16 | COC(=O)c1ccc([C@H](C)Nc2nccc3c2N(C(=O)c2ccc(C(F)(F)F)cc2)CCO3)cc1 [Example A48, methyl 4-[(1S)-1-[[4-[4-(trifluoromethyl)benzoyl]-2,3-dihydropyrido[4,3-b][1,4]oxazin-5-yl]amino]ethyl]benzoate] |  | 28 | 
17 | COc1ccc(CNc2nccc3c2N(Cc2ccc(F)c(F)c2)CCO3)cc1 [Example A49, 4-[(3,4-difluorophenyl)methyl]-N-[(4-methoxyphenyl)methyl]-2,3-dihydropyrido[4,3-b][1,4]oxazin-5-amine] |  | 17 | 
18 | C[C@H](Nc1nccc2c1N(Cc1ccccn1)CCO2)c1ccc(C(=O)O)cc1 [Example B27, 4-[(1S)-1-[[4-(2-pyridylmethyl)-2,3-dihydropyrido[4,3-b][1,4]oxazin-5-yl]amino]ethyl]benzoic acid] |  | 42 | 
19 | COC(=O)c1ccc(C2(Nc3nccc4c3N(Cc3ccc(F)c(F)c3)C(=O)CO4)CC2)cc1 [Example A47, methyl 4-[1-[[4-[(3,4-difluorophenyl)methyl]-3-oxopyrido[4,3-b][1,4]oxazin-5-yl]amino]cyclopropyl]benzoate] |  | 12 | 
20 | C[C@H](Nc1nccc2c1N(Cc1cccnc1)CCO2)c1ccc(C(=O)O)cc1 [Example B28, 4-[(1S)-1-[[4-(3-pyridylmethyl)-2,3-dihydropyrido[4,3-b][1,4]oxazin-5-yl]amino]ethyl]benzoic acid] |  | 49 | 
21 | COC(=O)c1ccc([C@H](C)Nc2ncnc3c2N(Cc2cccc(Cl)c2)C(=O)CO3)cc1 [Example A46, methyl 4-[(1S)-1-[[5-[(3-chlorophenyl)methyl]-6-oxo-pyrimido[4,5-b][1,4]oxazin-4-yl]amino]ethyl]benzoate] |  | 12 | 
